Assay results as given in US20080171783A1, “COMPOSITIONS AND METHODS FOR TREATING HYPERPROLIFERATIVE DISEASE” (Migenix Inc., priority 2006, published 2008).

How the values were obtained:
[1] = system: 5 Leukemia and 5 Colon Cancer Cell Lines; test: Cell viability by XTT, cell line panel; type: cell-based; details: for ARF (Average Response Factor, Average Percentage of Control) / Range (Percentage of Control over the same 10 cell lines): 10 μM; for ARF (Average Response Factor, Average Percentage of Control) / viability at 10 µM: average of the ten Percentage of Control values; for Range (Percentage of Control over the same 10 cell lines): lowest to highest of the ten cell lines; for viability at 10 µM: read-out: ARF (Average Response Factor, Average Percentage of Control)
Protocol: Compounds were solubilized at […] in DMSO and were stored at −20° C. Test compounds were initially tested at a single concentration of 10 μM and a subset of test compounds were further tested in selected cell lines using a six concentration dose response curve.
Cell Preparation Cancer cell lines were passaged in T-75 flasks prior to use in the assay in cell culture medium recommended by the ATCC (American Type Culture Collection; Table 6). On the day preceding the assay, the cells were split 1:2 to assure they were in an exponential growth phase at the time of compound treatment. Total cell and viability quantification was performed using a hemocytometer and Trypan Blue dye exclusion. […] The cells were resuspended at the appropriate cell per mL (Table 6) in tissue culture medium and added to the microtitre plates in a volume of 100 μL. Colon cell lines were incubated overnight at 37° C./5% CO2 to allow for cell adherence to the plates.
Plate Format: Each plate contains cell control wells (cells only), drug calorimetric control wells (drug only) as well as experimental wells (drug plus cells). Samples were tested in triplicate at a concentration of 10 μM and five half-logarithmic dilutions.
Cell Viability by XTT: Following incubation at 37° C. in a 5% CO2 incubator for four days, the test plates were stained with the tetrazolium dye XTT (2,3-bis(2-methoxy-4-nitro-5-sulfophenyl)-5-[(phenylamino)carbonyl]-2H-tetrazolium hydroxide). XTT-tetrazolium was metabolized by the mitochondrial enzymes of metabolically active cells to a soluble formazan product. XTT solution was prepared daily as a stock of 1 mg/mL in RPMI1640. Phenazine methosulfate (PMS) solution was prepared at 0.15 mg/mL in phosphate buffered saline (PBS) and stored in the dark at −20° C. XTT/PMS stock was prepared immediately before use by adding 40 μL of PMS per mL of XTT solution. Fifty (50) microlitres of XTT/PMS was added to each well of the plate and the plate was reincubated for 4 hours at 37° C. Plates were sealed with adhesive plate sealers and shaken gently or inverted several times to mix the soluble formazan product and the plate was read spectrophotometrically at 450/650 nm with a Molecular Devices Vmax plate reader. […] An Average Response Factor (ARF) was calculated for each compound by averaging the ten Percentage of Control values for the cell lines. […] Deviations below 100% control indicate activity. The concentration of each tested compound is 10 μM.

Calf polymerase alpha = target: T1, Calf polymerase alpha (Bos taurus, UniProt A0AAA9TD94); test: Calf polymerase alpha inhibition (Replizyme kit); type: biochemical; details: at 10 μM, single point screening
T1 construct: purchased Replizyme Ltd (Heslington, York, UK)
T1 sequence (A0AAA9TD94 1-1441): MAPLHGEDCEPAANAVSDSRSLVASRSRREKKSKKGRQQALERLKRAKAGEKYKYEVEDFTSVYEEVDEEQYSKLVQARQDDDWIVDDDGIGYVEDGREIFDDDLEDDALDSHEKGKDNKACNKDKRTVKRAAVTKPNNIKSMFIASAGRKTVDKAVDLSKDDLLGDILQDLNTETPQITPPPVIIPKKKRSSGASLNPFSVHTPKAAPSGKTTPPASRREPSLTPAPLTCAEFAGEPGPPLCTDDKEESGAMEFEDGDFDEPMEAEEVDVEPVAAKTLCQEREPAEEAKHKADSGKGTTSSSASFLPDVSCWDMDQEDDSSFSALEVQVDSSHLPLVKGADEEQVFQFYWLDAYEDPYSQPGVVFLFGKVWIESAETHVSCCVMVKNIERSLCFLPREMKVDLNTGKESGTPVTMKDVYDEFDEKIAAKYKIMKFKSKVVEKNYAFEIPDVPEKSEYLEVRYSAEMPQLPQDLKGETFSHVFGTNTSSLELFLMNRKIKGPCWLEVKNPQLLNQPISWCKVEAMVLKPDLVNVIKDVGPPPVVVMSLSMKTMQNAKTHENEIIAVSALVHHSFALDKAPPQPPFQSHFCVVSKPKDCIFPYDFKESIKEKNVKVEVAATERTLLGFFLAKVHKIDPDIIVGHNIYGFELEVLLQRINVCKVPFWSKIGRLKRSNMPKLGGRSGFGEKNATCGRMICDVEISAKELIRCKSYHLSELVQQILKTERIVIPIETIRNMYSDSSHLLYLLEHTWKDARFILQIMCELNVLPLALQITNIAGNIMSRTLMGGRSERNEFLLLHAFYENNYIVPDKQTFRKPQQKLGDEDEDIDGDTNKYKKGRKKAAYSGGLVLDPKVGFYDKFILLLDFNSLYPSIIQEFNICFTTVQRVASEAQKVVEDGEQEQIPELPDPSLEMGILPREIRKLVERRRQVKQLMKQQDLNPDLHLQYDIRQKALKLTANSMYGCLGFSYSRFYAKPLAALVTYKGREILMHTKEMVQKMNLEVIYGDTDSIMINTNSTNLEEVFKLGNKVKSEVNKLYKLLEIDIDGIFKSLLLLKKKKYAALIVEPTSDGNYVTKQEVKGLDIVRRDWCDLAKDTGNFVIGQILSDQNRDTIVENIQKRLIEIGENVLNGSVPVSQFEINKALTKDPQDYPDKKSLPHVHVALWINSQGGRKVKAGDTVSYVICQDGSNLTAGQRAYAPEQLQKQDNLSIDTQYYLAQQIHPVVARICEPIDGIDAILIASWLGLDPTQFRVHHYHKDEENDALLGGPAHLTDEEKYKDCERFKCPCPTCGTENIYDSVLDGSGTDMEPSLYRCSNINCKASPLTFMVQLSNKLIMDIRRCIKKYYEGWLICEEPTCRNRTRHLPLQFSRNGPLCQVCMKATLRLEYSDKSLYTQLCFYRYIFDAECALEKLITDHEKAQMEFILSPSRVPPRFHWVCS
Protocol: Calf polymerase alpha and human polymerase alpha investigations were performed with a kit available from Replizyme Ltd (Heslington, York, UK).

`Cc1ccc(NC(=O)[C@H](CCCCN)NS(=O)(=O)c2ccc(-c3ccccc3)cc2)cc1` [Compound 70, (S)-6-AMINO-2-(BIPHENYL-4-SULFONYLAMINO)-HEXANOIC ACID P-TOLYLAMIDE] was tested, and the “ARF (Average Response Factor, Average Percentage of Control)” value [1] was 94.5%, the “Range (Percentage of Control over the same 10 cell lines)” value [1] was 61.1 to 115.5% and the “% Inhibition” value (Calf polymerase alpha) was 50%.

In the case of `NCCCC[C@H](NC(=O)OCC1c2ccccc2-c2ccccc21)C(=O)Nc1ccc2c(c1)CCC2` [Compound 81, (S)-[5-AMINO-1-(INDAN-5-YLCARBAMOYL)-PENTYL]-CARBAMIC ACID 9H-FLUOREN-9-YLMETHYL ESTER], the “Range (Percentage of Control over the same 10 cell lines)” value [1] is reported as 61.3 to 116.5%, the viability at 10 µM [1] is reported as 94.2% and the inhibition at 10 µM (Calf polymerase alpha) is reported as 101%.

In the case of `Cc1ccc(NC(=O)[C@H](CCCCN)NC(=O)Nc2cccc(Oc3ccccc3)c2)cc1` [Compound 98, (S)-6-AMINO-2-[3-(3-PHENOXY-PHENYL)-UREIDO]-HEXANOIC ACID P-TOLYLAMIDE], the “ARF (Average Response Factor, Average Percentage of Control)” value [1] is reported as 90.8%, the “Range (Percentage of Control over the same 10 cell lines)” value [1] is reported as 53.8 to 126.6% and the “% Inhibition” value (Calf polymerase alpha) is reported as 89%.

`NCCCC[C@H](NC(=O)Nc1ccc(OCc2ccccc2)cc1)C(=O)Nc1ccc(C2CCCCC2)cc1` [Compound 117, (S)-6-AMINO-2-[3-(4-BENZYLOXY-PHENYL)-UREIDO]-HEXANOIC ACID (4-CYCLOHEXYL-PHENYL)-AMIDE] was tested, and the “Range (Percentage of Control over the same 10 cell lines)” value [1] was 35.7 to 125.7%, the viability at 10 µM [1] was 86.5% and the inhibition at 10 µM (Calf polymerase alpha) was 102%.

With `NCCCCC[C@H](NC(=O)NCc1ccccc1)C(=O)Nc1ccc(C2CCCCC2)cc1` [Compound 120, (S)-7-AMINO-2-(3-BENZYL-UREIDO)-HEPTANOIC ACID (4-CYCLOHEXYL-PHENYL)-AMIDE] the “Range (Percentage of Control over the same 10 cell lines)” value [1] was 40.4 to 117.1%, the viability at 10 µM [1] was 88.4% and the inhibition at 10 µM (Calf polymerase alpha) was 100%.

For `Cc1ccc(NC(=O)[C@H](CCCN)NC(=O)Nc2ccc(OCc3ccccc3)cc2)cc1` [Compound 189, (S)-5-AMINO-2-[3-(4-BENZYLOXY-PHENYL)-UREIDO]-PENTANOIC ACID P-TOLYLAMIDE], the “ARF (Average Response Factor, Average Percentage of Control)” value [1] was 89.0%, the “Range (Percentage of Control over the same 10 cell lines)” value [1] was 66.6 to 107.6% and the “% Inhibition” value (Calf polymerase alpha) was 76%.

For `Cc1ccc(NC(=O)[C@H](CCCCN)NC(=O)Nc2cccc(OCc3ccccc3)c2)cc1` [Compound 204, (S)-6-AMINO-2-[3-(3-BENZYLOXY-PHENYL)-UREIDO]-HEXANOIC ACID P-TOLYLAMIDE], the “ARF (Average Response Factor, Average Percentage of Control)” value [1] was 89.3%, the “Range (Percentage of Control over the same 10 cell lines)” value [1] was 70.1 to 116.4% and the “% Inhibition” value (Calf polymerase alpha) was 94%.

With `Cc1cc2cc(NC(=O)[C@H](CCCCN)NC(=O)Nc3ccc(OCc4ccccc4)cc3)ccc2[nH]1` [Compound 206, (S)-6-AMINO-2-[3-(4-BENZYLOXY-PHENYL)-UREIDO]-HEXANOIC ACID (2-METHYL-1H-INDOL-5-YL)-AMIDE] the “Range (Percentage of Control over the same 10 cell lines)” value [1] was 81.4 to 107.6%, the viability at 10 µM [1] was 92.9% and the inhibition at 10 µM (Calf polymerase alpha) was 87%.

For `Cc1ccc(NC(=O)[C@H](CCCCN)NC(=O)Nc2cccc(Cc3ccccc3)c2)cc1` [Compound 212, (S)-6-AMINO-2-[3-(3-BENZYL-PHENYL)-UREIDO]-HEXANOIC ACID P-TOLYLAMIDE], the “ARF (Average Response Factor, Average Percentage of Control)” value [1] was 94.2%, the “Range (Percentage of Control over the same 10 cell lines)” value [1] was 52.7 to 118.6% and the “% Inhibition” value (Calf polymerase alpha) was 97%.

`Cc1ccc(NC(=O)C[C@H](CCCCN)NC(=O)Nc2ccc3c(c2)Cc2ccccc2-3)cc1` [Compound 247, (S)-7-AMINO-3-[3-(9H-FLUOREN-2-YL)-UREIDO]-HEPTANOIC ACID P-TOLYLAMIDE] was tested, and the “ARF (Average Response Factor, Average Percentage of Control)” value [1] was 85.6%, the “Range (Percentage of Control over the same 10 cell lines)” value [1] was 28.5 to 104.3% and the “% Inhibition” value (Calf polymerase alpha) was 87%.

With `NCc1ccc(NC(=O)[C@@H](NC(=O)Nc2ccc(OCc3ccccc3)cc2)c2ccccc2)cc1` [Compound 305, (S)—N-(4-AMINOMETHYL-PHENYL)-2-[3-(4-BENZYLOXY-PHENYL)-UREIDO]-2-PHENYL-ACETAMIDE] the “Range (Percentage of Control over the same 10 cell lines)” value [1] was 30.9 to 105.9%, the viability at 10 µM [1] was 79.5% and the inhibition at 10 µM (Calf polymerase alpha) was 104%.

`NCCCCCCNC(=O)[C@@H](NC(=O)Nc1ccc(OCc2ccccc2)cc1)c1ccccc1` [Compound 319, (S)—N-(6-AMINO-HEXYL)-2-[3-(4-BENZYLOXY-PHENYL)-UREIDO]-2-PHENYL-ACETAMIDE] was tested, and the “Range (Percentage of Control over the same 10 cell lines)” value [1] was 80.0 to 116.4%, the viability at 10 µM [1] was 95.6% and the inhibition at 10 µM (Calf polymerase alpha) was 71%.

In the case of `NCCCC[C@H](NC(=O)Nc1ccc(OCc2ccccc2)cc1)C(=O)Nc1cccc2c1CCC2` [Compound 321, (S)-6-AMINO-2-[3-(4-BENZYLOXY-PHENYL)-UREIDO]-HEXANOIC ACID INDAN-4-YLAMIDE], the “Range (Percentage of Control over the same 10 cell lines)” value [1] is reported as 55.9 to 109.3%, the viability at 10 µM [1] is reported as 88% and the inhibition at 10 µM (Calf polymerase alpha) is reported as 101%.

`NCCCCN(CC(=O)Nc1ccc(C2CCCCC2)cc1)C(=O)Nc1ccc(C=Cc2ccccc2)cc1` [Compound 324, 2-[1-(4-AMINO-BUTYL)-3-(4-STYRYL-PHENYL)-UREIDO]-N-(4-CYCLOHEXYL-PHENYL)-ACETAMIDE] was tested, and the “Range (Percentage of Control over the same 10 cell lines)” value [1] was 69.3 to 109.9%, the viability at 10 µM [1] was 95.8% and the inhibition at 10 µM (Calf polymerase alpha) was 92.5%.

With `Cc1ccc(NC(=O)[C@H](CCCCN)NC(=O)CNc2ccccc2Oc2ccccc2)cc1` [Compound 366, (S)-6-AMINO-2-[2-(2-PHENOXY-PHENYLAMINO)-ACETYLAMINO]-HEXANOIC ACID P-TOLYLAMIDE] the “ARF (Average Response Factor, Average Percentage of Control)” value [1] was 100.4%, the “Range (Percentage of Control over the same 10 cell lines)” value [1] was 64.8 to 121.1% and the “% Inhibition” value (Calf polymerase alpha) was 100%.
